# Experimental data published in patent US6770587B1, “Chain extended functionalized initiators and methods of preparing and using the same” (FMC Corporation, priority 2000, dated 2004).
# Tests used:
# [1] = Solubility of initiator in cyclohexane with isoprene added as chain extension agent; type: physicochemical; details: for solubility, Moles Active/Kg. / solubility, Moles Active/Liter: cyclohexane
# Protocol: For example, the solubility of 3-(1,1-dimethylethoxy)-1-propyllithium was investigated in cyclohexane at 0° C., with various amounts of isoprene added as a chain extension agent. The solubility data is collected in the table below:
# A similar impact on the solubility of 3-(hexamethyleneimino)-1-propyllithium in cyclohexane was obtained with the addition of limited amounts of isoprene.
# A one-liter three-necked Morton flask was equipped with a mechanical stirrer, Claisen adapter with an ice condenser and gas inlet, and a 250 milliliter pressure-equalizing dropping funnel. This apparatus was dried in an oven overnight at 125° C., assembled hot, and allowed to cool to room temperature in a stream of argon. Lithium metal dispersion was washed free of mineral oil with hexane (2×100 ml) and pentane (1×100 ml). The resultant lithium dispersion was dried in a stream of argon, weighed (13.90 grams, 2.00 moles, 2.80 equivalents), and transferred to the reaction flask with 400 ml of cyclohexane. The mechanical stirrer was set at an agitation rate of 500 RPMs, and the reaction mixture was heated to 80° C. with a heating mantle. The heat source was removed. The dropping funnel was charged with 107.82 grams (0.72 moles, 1.00 equivalent) of the precursor. The precursor was added dropwise, at an approximate rate of 0.71 ml/min. The reaction temperature was maintained at 70° C. with a dry ice/hexane bath. The total halide feed time was 162 minutes. The reaction mixture was allowed to stir for one hour post-feed, and maintained at a temperature of 70° C. with a heating mantle. Then isoprene, 98.20 grams ([…], […] of isoprene) was added at a feed rate of approximately 2.55 ml/min. The temperature was maintained at 62.5° C. during and after the feed. The reaction stirred for two hours before it was cooled to room temperature and filtered through a medium porosity pressure filter. The lithium muds were washed with cyclohexane (1×50 ml). The filtration took 15 minutes. This afforded a dark yellow solution, 647.08 grams, 850 ml. The sample was stored in 0° C. refrigerator. This solution was transferred to a dry, 1000 ml pear shaped flask. A majority of the solvent was removed on the rotary evaporator, at full vacuum, with a bath temperature of 30° C. This afforded a mobile, yellow oil, yield=307.92 g, 475 ml.
# [2] = non-chain extended initiator, cyclohexane (background statement); cited from earlier work
# [3] = Storage of initiator solutions, observation of precipitate or crystals; type: physicochemical
# Protocol: The sample bottle was placed in a refrigerator at −1° C. for twenty-four hours.
# (§1) The sample bottle was placed in a refrigerator at −1° C. for twenty-four hours. […] This solution was transferred to a dry, one-liter pear shaped flask. A majority of the solvent was removed on the rotary evaporator, at full vacuum, with a bath temperature of 40° C. This afforded a dark amber oil, yield=154.85 grams.
# as §1, with “one liter” for “one-liter”, “yield=230.07” for “yield=154.85”
# The sample bottle was placed in a refrigerator at −2° C. for forty-eight hours.
# This solution was transferred to a dry, 500 ml., pear shaped flask. A majority of the solvent was removed on the rotary evaporator, at full vacuum, with a bath temperature of 40° C. This afforded a dark amber oil, yield=104.90 grams. Heptane, 6.11 grams, was added as a freezing point depressant.
# A one-liter three-necked Morton flask was equipped with a mechanical stirrer, Claisen adapter with an ice condenser and gas inlet, and a 250 milliliter pressure-equalizing dropping funnel. This apparatus was dried in an oven overnight at 125° C., assembled hot, and allowed to cool to room temperature in a stream of argon. Lithium metal dispersion was washed free of mineral oil with hexane (2×100 ml), and pentane (1×100 ml). The resultant lithium dispersion was dried in a stream of argon, weighed (12.22 grams, 1.76 moles, 2.80 equivalents), and transferred to the reaction flask with 550 ml of cyclohexane. The mechanical stirrer was set at an agitation rate of 500 RPMs, and the reaction mixture was heated to 80° C. with a hearing mantle. The heat source was removed. The dropping funnel was charged with 94.90 grams (0.63 moles, 1.00 equivalent) of the precursor. The precursor was added dropwise, at an approximate rate of 1.59 ml/min. The reaction temperature was maintained at 70° C. with a dry ice/hexane bath. The total halide feed time was 66 minutes. The reaction mixture was allowed to stir for one hour post-feed and maintained at a temperature of 67.5° C. with a heating mantle. Then isoprene, 22.89 grams ([…], 0.50 equivalents of isoprene) was added at a feed rate of approximately 1.58 ml/min. The temperature was maintained at 62.5° C. during and after the feed. The reaction stirred for two hours before it was cooled to room temperature and filtered through a medium porosity pressure filter. The lithium muds were washed with cyclohexane (2×70 ml). The filtration took 15 minutes. This afforded a clear, light yellow solution, 513.07 g, 650 ml. The sample was stored in 0° C. refrigerator. This solution was transferred to a dry, 1000 ml pear-shaped flask. Some solvent was removed on the rotary evaporator, at full vacuum, with a bath temperature of 30° C. This afforded a light yellow solution, yield=386.01 g, 550 ml.
# A one-liter three-necked Morton flask was equipped with a mechanical stirrer, Claisen adapter with an ice condenser and gas inlet, and a 250 milliliter pressure-equalizing dropping funnel. This apparatus was dried in an oven overnight at 125° C., assembled hot, and allowed to cool to room temperature in a stream of argon. Lithium metal dispersion was washed free of mineral oil with hexane (2×100 ml) and pentane (1×100 ml). The resultant lithium dispersion was dried in a stream of argon, weighed (13.90 grams, 2.00 moles, 2.80 equivalents), and transferred to the reaction flask with 400 ml of cyclohexane. The mechanical stirrer was set at an agitation rate of 500 RPMs, and the reaction mixture was heated to 80° C. with a heating mantle. The heat source was removed. The dropping funnel was charged with 107.82 grams (0.72 moles, 1.00 equivalent) of the precursor. The precursor was added dropwise, at an approximate rate of 0.71 ml/min. […]
# [4] = 0° C., 0.00 isoprene equivalents
# [5] = 0° C., 0.50 isoprene equivalents
# [6] = 0° C., 0.75 isoprene equivalents
# [7] = 0° C., 1.00 isoprene equivalents
# [8] = 0° C., 2.00 isoprene equivalents
smiles,measurement,setting,value
"[Li][CH2]C(C)(C)CO[Si](C)(C)C [2,2-dimethyl-3-trimethylsilyloxy-1-propyllithium]",effect of chain extension on solubility,[1]; addition of less than one equivalent of the chain extension agent,increased the solubility
"[Li][CH2]CCOC(C)(C)C [3-(1,1-dimethylethoxy)-1-propyllithium]","solubility, Moles Active/Kg.",[1]; [4],0.36 Moles Active/Kg.
same,"solubility, Moles Active/Liter",[1]; [4],0.30 Moles Active/Liter
same,"solubility, Moles Active/Kg.",[1]; [5],1.35 Moles Active/Kg.
same,"solubility, Moles Active/Liter",[1]; [5],1.06 Moles Active/Liter
same,"solubility, Moles Active/Kg.",[1]; [6],1.72 Moles Active/Kg.
same,"solubility, Moles Active/Liter",[1]; [6],1.33 Moles Active/Liter
same,"solubility, Moles Active/Kg.",[1]; [7],1.84 Moles Active/Kg.
same,"solubility, Moles Active/Liter",[1]; [7],1.42 Moles Active/Liter
same,"solubility, Moles Active/Kg.",[1]; [8],1.90 Moles Active/Kg.
same,"solubility, Moles Active/Liter",[1]; [8],1.46 Moles Active/Liter
"[Li][CH2]CCOC(C)(C)CC [3-(1,1-dimethylpropyloxy)-1-propyllithium]",maximum solubility in cyclohexane,[2],0.30 Molar
[Li][CH2]CCN1CCCCCC1 [3-(hexamethyleneimino)-1-propyllithium],maximum solubility in cyclohexane,[2],0.30 Molar
same,"solubility, Moles Active/Kg.",[1]; 0.00 isoprene equivalents,0.20 Moles Active/Kg.
same,"solubility, Moles Active/Liter",[1]; 0.00 isoprene equivalents,0.16 Moles Active/Liter
same,"solubility, Moles Active/Kg.",[1]; 0.13 isoprene equivalents,0.64 Moles Active/Kg.
same,"solubility, Moles Active/Liter",[1]; 0.13 isoprene equivalents,0.51 Moles Active/Liter
same,"solubility, Moles Active/Kg.",[1]; 0.51 isoprene equivalents,2.08 Moles Active/Kg.
same,"solubility, Moles Active/Liter",[1]; 0.51 isoprene equivalents,1.62 Moles Active/Liter
same,"solubility, Moles Active/Kg.",[1]; 0.90 isoprene equivalents,2.43 Moles Active/Kg.
same,"solubility, Moles Active/Liter",[1]; 0.90 isoprene equivalents,2.01 Moles Active/Liter
same,"solubility, Moles Active/Kg.",[1]; 2.00 isoprene equivalents,2.75 Moles Active/Kg.
same,"solubility, Moles Active/Liter",[1]; 2.00 isoprene equivalents,2.28 Moles Active/Liter
same,precipitation on storage,"[3]; cyclohexane solution, 6.707 wt. % (0.4556 moles/kg), overnight at −5° C.",heavy white precipitate
[Li][CH2]CCN1CCCC1 [3-(pyrrolidino)-1-propyllithium],precipitation on storage,"[3]; cyclohexane solution before chain extension, 14.63 wt. % (1.228 moles/kg), overnight at 20° C.",heavy white precipitate had formed
"[Li][CH2]CCN1CCCCCC1 [Example 1, 3-(Hexamethyleneimino)-1-Propyllithium]",precipitation on storage,"[3]; cyclohexane solution as obtained, refrigerator at −1° C. for twenty-four hours",No solids had precipitated
same,precipitation on storage,"[3]; cyclohexane solution as obtained, storage overnight at 15° C.",no solids had precipitated
"[Li][CH2]CCN1CCCCCC1 [Example 2, 3-(Hexamethyleneimino)-1-Propyllithium]",precipitation on storage,"[3]; concentrated solution, 30.65 wt. % (2.083 moles/kg), −1° C. for one week",no precipitate was observed
"[Li][CH2]CCN1CCCCCC1 [Example 3, 3-(Hexamethyleneimino)-1-Propyllithium]",precipitation on storage,"[3]; concentrated solution, 35.74 wt. % (2.428 moles/kg), −1° C. for ten days",no precipitate was observed
"[Li][CH2]CCN1CCCC1 [Example 4, 3-(Pyrrolidino)-1-Propyllithium]",precipitation on storage,"[3]; cyclohexane solution diluted with heptane, 9.53 wt. %, −2° C. for forty-eight hours",No solids had precipitated
"[Li][CH2]CCN1CCCC1 [Example 5, 3-(Pyrrolidino)-1-Propyllithium]",precipitation on storage,"[3]; concentrated solution with heptane, 24.14 wt %, −2° C. for four days",no solids had precipitated
same,precipitation on storage,"[3]; cyclohexane solution, 14.02 wt. %, overnight at −2° C.",no solids had precipitated
"[Li][CH2]CCOC(C)(C)C [Example 7, 3-(1,1-Dimethylethoxy)-1-propyllithium]",crystals on storage,"[3]; cyclohexane solution, 0° C. refrigerator, after one day",Crystals were present
"[Li][CH2]CCOC(C)(C)C [Example 10, 3-(1,1-Dimethylethoxy)-1-propyllithium]",crystals on storage,"[3]; concentrated cyclohexane solution, 49.4 wt. % (1.91 mole/kg), storage in 0° C. refrigerator, maximum solubility",crystals were present
